Test results as given in US20100267561A1, “HERBICIDAL PYRIDAZINONE DERIVATIVES” (priority 2007, published 2010).

Key:
Type in all cases: in vivo
[1] = tested on: Italian ryegrass (Lolium multiflorum); assay: Test B pre-/postemergence plant response
Text: (§1) Seeds of plant species selected from blackgrass (Alopecurus myosuroides), downy bromegrass (Bromus tectorum), green foxtail (Setaria viridis), Italian ryegrass (Lolium multiflorum), wheat (Triticum aestivum), wild oat (Avena fatua), catchweed bedstraw (Galium aparine), bermudagrass (Cynodon dactylon), surinam grass (Brachiaria decumbens), cocklebur (Xanthium strumarium), corn (Zea mays), large crabgrass (Digitaria sanguinalis), woolly cupgrass (Eriochloa villosa), giant foxtail (Setaria faberii), goosegrass (Eleusine indica), johnsongrass (Sorghum halepense), kochia (Kochia scoparia), lambsquarters (Chenopodium album), morningglory (Ipomoea coccinea), eastern black (E.B.) nightshade (Solanum ptycanthum), yellow nutsedge (Cyperus esculentus), pigweed (Amaranthus retroflexus), common ragweed (Ambrosia elation), Russian thistle (Salsola iberica), soybean (Glycine max), common (oilseed) sunflower (Helianthus annuus), and velvetleaf (Abutilon theophrasti) were planted and treated preemergence with test chemicals formulated in a non-phytotoxic solvent mixture which included a surfactant.
(§2) At the same time, plants selected from these crop and weed species and also winter barley (Hordeum vulgare), canarygrass (Phalaris minor), chickweed (Stellaria media) and windgrass (Apera spica-venti) were treated with postemergence applications of some of the test chemicals formulated in the same manner. Plants ranged in height from 2 to 18 cm (1- to 4-leaf stage) for postemergence treatments.
(§3) Plant species in the flooded paddy test consisted of rice (Oryza sativa), umbrella sedge (Cyperus difformis), ducksalad (Heteranthera limosa) and barnyardgrass (Echinochloa crus-galli) grown to the 2-leaf stage for testing. At time of treatment, test pots were flooded to 3 cm above the soil surface, treated by application of test compounds directly to the paddy water, and then maintained at that water depth for the duration of the test. Treated plants and controls were maintained in a greenhouse for 13 to 15 days, after which time all species were compared to controls and visually evaluated. Plant response ratings, summarized in Table B, are based on a scale of 0 to 100 where 0 is no effect and 100 is complete control. A dash (-) response means no test result.

[2] = tested on: cocklebur (Xanthium strumarium); assay: Test B pre-/postemergence plant response
Text: as §1, §2, §3

[3] = tested on: lambsquarters (Chenopodium album); assay: Test B pre-/postemergence plant response
Text: as §1, §2, §3

[4] = tested on: large crabgrass (Digitaria sanguinalis); assay: Test B pre-/postemergence plant response
Text: as §1, §2, §3

[5] = tested on: goosegrass (Eleusine indica); assay: Test B pre-/postemergence plant response
Text: as §1, §2, §3

soybean (Glycine max) = assay: Test B pre-/postemergence plant response
Text: as §1, §2, §3

[6] = tested on: common ragweed (Ambrosia elation); assay: Test B pre-/postemergence plant response
Text: as §1, §2, §3

[7] = tested on: velvetleaf (Abutilon theophrasti); assay: Test B pre-/postemergence plant response
Text: as §1, §2, §3

[8] = tested on: bermudagrass (Cynodon dactylon); assay: Test B pre-/postemergence plant response; details: for Bermudagrass plant response rating: preemergence, 0-100 scale
Text: as §1, §2, §3

[9] = tested on: umbrella sedge (Cyperus difformis); assay: Test B flooded paddy test plant response
In short: (§4)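 Paddy-water application to 2-leaf plants in pots held under 3 cm of flooding; response is a 0–100 visual control rating against controls after 13 to 15 days, and a dash marks a missing result.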

[10] = tested on: ducksalad (Heteranthera limosa); assay: Test B flooded paddy test plant response
In short: as §4

rice (Oryza sativa) = assay: Test B flooded paddy test plant response
In short: as §4

[11] = tested on: barnyardgrass (Echinochloa crus-galli); assay: Test B flooded paddy test plant response
In short: as §4

[12] = Postemergence, 31 g ai/ha, scale 0 to 100, 0 no effect, 100 complete control
[13] = Postemergence, 62 g ai/ha, scale 0 to 100
[14] = Postemergence, 125 g ai/ha, scale 0 to 100
[15] = Postemergence, 250 g ai/ha, scale 0 to 100
[16] = Preemergence, 31 g ai/ha, 0 to 100 scale, 0 no effect, 100 complete control
[17] = Preemergence, 62 g ai/ha, scale 0 to 100
[18] = Preemergence, 125 g ai/ha, scale 0 to 100
[19] = Preemergence, 250 g ai/ha, scale 0 to 100
[20] = Flood (flooded paddy test), 62 g ai/ha, scale 0 to 100, 0 no effect, 100 complete control
[21] = Flood (flooded paddy test), 125 g ai/ha, scale 0 to 100, 0 no effect, 100 complete control
[22] = Flood (flooded paddy test), 250 g ai/ha, scale 0 to 100, 0 no effect, 100 complete control
[23] = Flood, 31 g ai/ha, scale 0 to 100

Molecule: 5-[3-(4-chlorophenyl)-5-methyl-1H-pyrazol-1-yl]-1,6-dihydro-1-methyl-6-oxo-4-pyridazinyl-1-methylethyl carbonate [Compound 7]
- Plant response rating, Ryegrass, Italian [1, 12]: 95
- Plant response rating, Ryegrass, Italian [1, 13]: 100
- Plant response rating, Ryegrass, Italian [1, 14]: 100
- Plant response rating, Ryegrass, Italian [1, 15]: 100
- Plant response rating, Ryegrass, Italian [1, 16]: 90
- Plant response rating, Ryegrass, Italian [1, 17]: 100
- Plant response rating, Ryegrass, Italian [1, 18]: 100
- Plant response rating, Ryegrass, Italian [1, 19]: 100
- Plant response rating, Cocklebur [2, 12]: 0
- Plant response rating, Cocklebur [2, 13]: 0
- Plant response rating, Cocklebur [2, 14]: 0
- Plant response rating, Cocklebur [2, 15]: 0
- Plant response rating, Cocklebur [2, 16]: 0
- Plant response rating, Cocklebur [2, 17]: 0
- Plant response rating, Cocklebur [2, 18]: 0
- Plant response rating, Cocklebur [2, 19]: 0
- Plant response rating, Lambsquarters [3, 12]: 0
- Plant response rating, Lambsquarters [3, 13]: 0
- Plant response rating, Lambsquarters [3, 14]: 0
- Plant response rating, Lambsquarters [3, 15]: 10
- Plant response rating, Lambsquarters [3, 16]: 30
- Plant response rating, Lambsquarters [3, 17]: 30
- Plant response rating, Lambsquarters [3, 18]: 90
- Plant response rating, Lambsquarters [3, 19]: 100
- Plant response rating, Crabgrass, Large [4, 12]: 100
- Plant response rating, Crabgrass, Large [4, 13]: 100
- Plant response rating, Crabgrass, Large [4, 14]: 100
- Plant response rating, Crabgrass, Large [4, 15]: 100
- Plant response rating, Crabgrass, Large [4, 16]: 100
- Plant response rating, Crabgrass, Large [4, 17]: 100
- Plant response rating, Crabgrass, Large [4, 18]: 100
- Plant response rating, Crabgrass, Large [4, 19]: 100
- Plant response rating, Goosegrass [5, 12]: 95
- Plant response rating, Goosegrass [5, 13]: 100
- Plant response rating, Goosegrass [5, 14]: 100
- Plant response rating, Goosegrass [5, 15]: 100
- Plant response rating, Goosegrass [5, 16]: 85
- Plant response rating, Goosegrass [5, 17]: 90
- Plant response rating, Goosegrass [5, 18]: 100
- Plant response rating, Goosegrass [5, 19]: 100
- Plant response rating, Soybean (soybean (Glycine max); [12]): 0
- Plant response rating, Soybean (soybean (Glycine max); [13]): 0
- Plant response rating, Soybean (soybean (Glycine max); [18]): 0
- Plant response rating, Soybean (soybean (Glycine max); [19]): 0
- Plant response rating, Ragweed [6, 12]: 0
- Plant response rating, Ragweed [6, 13]: 0
- Plant response rating, Ragweed [6, 14]: 0
- Plant response rating, Ragweed [6, 15]: 0
- Plant response rating, Ragweed [6, 16]: 0
- Plant response rating, Ragweed [6, 17]: 0
- Plant response rating, Ragweed [6, 18]: 0
- Plant response rating, Ragweed [6, 19]: 20
- Plant response rating, Velvetleaf [7, 12]: 0
- Plant response rating, Velvetleaf [7, 13]: 0
- Plant response rating, Velvetleaf [7, 14]: 0
- Plant response rating, Velvetleaf [7, 15]: 0
- Plant response rating, Velvetleaf [7, 16]: 0
- Plant response rating, Velvetleaf [7, 17]: 0
- Plant response rating, Velvetleaf [7, 18]: 0
- Plant response rating, Velvetleaf [7, 19]: 0
- Bermudagrass plant response rating ([8]; 250 g ai/ha): 100
- Plant response rating, Bermudagrass [8, 12]: 100
- Plant response rating, Bermudagrass [8, 13]: 100
- Plant response rating, Bermudagrass [8, 14]: 100
- Plant response rating, Bermudagrass [8, 15]: 100
- Plant response rating, Bermudagrass [8, 16]: 60
- Plant response rating, Bermudagrass [8, 17]: 90
- Plant response rating, Bermudagrass [8, 18]: 90
- Plant response rating, Sedge, Umbrella [9, 20]: 80
- Plant response rating, Sedge, Umbrella [9, 21]: 80
- Plant response rating, Sedge, Umbrella [9, 22]: 80
- Plant response rating, Sedge, Umbrella [9, 23]: 70
- Plant response rating, Ducksalad [10, 20]: 0
- Plant response rating, Ducksalad [10, 21]: 20
- Plant response rating, Ducksalad [10, 22]: 40
- Plant response rating, Ducksalad [10, 23]: 0
- Plant response rating, Rice (rice (Oryza sativa); [20]): 30
- Plant response rating, Rice (rice (Oryza sativa); [21]): 45
- Plant response rating, Rice (rice (Oryza sativa); [22]): 65
- Plant response rating, Rice (rice (Oryza sativa); [23]): 20
- Plant response rating, Barnyardgrass [11, 20]: 45
- Plant response rating, Barnyardgrass [11, 21]: 65
- Plant response rating, Barnyardgrass [11, 22]: 85
- Plant response rating, Barnyardgrass [11, 23]: 20

Molecule: Cc1cc(-c2ccc(Br)cc2)nn1-c1c(OC(=O)C2CC2)cnn(C)c1=O [Compound 5]
- Plant response rating, Ryegrass, Italian [1, 12]: 100
- Plant response rating, Ryegrass, Italian [1, 13]: 100
- Plant response rating, Ryegrass, Italian [1, 14]: 100
- Plant response rating, Ryegrass, Italian [1, 15]: 100
- Plant response rating, Ryegrass, Italian [1, 16]: 100
- Plant response rating, Ryegrass, Italian [1, 17]: 100
- Plant response rating, Ryegrass, Italian [1, 18]: 100
- Plant response rating, Ryegrass, Italian [1, 19]: 100
- Plant response rating, Cocklebur [2, 12]: 0
- Plant response rating, Cocklebur [2, 13]: 0
- Plant response rating, Cocklebur [2, 14]: 0
- Plant response rating, Cocklebur [2, 15]: 20
- Plant response rating, Cocklebur [2, 16]: 0
- Plant response rating, Cocklebur [2, 17]: 0
- Plant response rating, Cocklebur [2, 18]: 0
- Plant response rating, Lambsquarters [3, 12]: 0
- Plant response rating, Lambsquarters [3, 13]: 20
- Plant response rating, Lambsquarters [3, 14]: 80
- Plant response rating, Lambsquarters [3, 15]: 80
- Plant response rating, Lambsquarters [3, 18]: 90
- Plant response rating, Lambsquarters [3, 19]: 100
- Plant response rating, Crabgrass, Large [4, 12]: 100
- Plant response rating, Crabgrass, Large [4, 13]: 100
- Plant response rating, Crabgrass, Large [4, 14]: 100
- Plant response rating, Crabgrass, Large [4, 15]: 100
- Plant response rating, Crabgrass, Large [4, 16]: 100
- Plant response rating, Crabgrass, Large [4, 17]: 100
- Plant response rating, Crabgrass, Large [4, 18]: 100
- Plant response rating, Crabgrass, Large [4, 19]: 100
- Plant response rating, Goosegrass [5, 12]: 95
- Plant response rating, Goosegrass [5, 13]: 95
- Plant response rating, Goosegrass [5, 14]: 100
- Plant response rating, Goosegrass [5, 15]: 100
- Plant response rating, Goosegrass [5, 16]: 75
- Plant response rating, Goosegrass [5, 17]: 100
- Plant response rating, Goosegrass [5, 18]: 100
- Plant response rating, Goosegrass [5, 19]: 100
- Plant response rating, Soybean (soybean (Glycine max); [12]): 0
- Plant response rating, Soybean (soybean (Glycine max); [13]): 50
- Plant response rating, Soybean (soybean (Glycine max); [14]): 65
- Plant response rating, Soybean (soybean (Glycine max); [15]): 70
- Plant response rating, Soybean (soybean (Glycine max); [16]): 0
- Plant response rating, Soybean (soybean (Glycine max); [17]): 0
- Plant response rating, Soybean (soybean (Glycine max); [18]): 0
- Plant response rating, Ragweed [6, 12]: 0
- Plant response rating, Ragweed [6, 13]: 0
- Plant response rating, Ragweed [6, 14]: 60
- Plant response rating, Ragweed [6, 15]: 65
- Plant response rating, Ragweed [6, 16]: 0
- Plant response rating, Ragweed [6, 17]: 0
- Plant response rating, Ragweed [6, 18]: 0
- Plant response rating, Ragweed [6, 19]: 10
- Plant response rating, Velvetleaf [7, 12]: 0
- Plant response rating, Velvetleaf [7, 13]: 0
- Plant response rating, Velvetleaf [7, 14]: 0
- Plant response rating, Velvetleaf [7, 15]: 10
- Plant response rating, Velvetleaf [7, 16]: 0
- Plant response rating, Velvetleaf [7, 17]: 0
- Plant response rating, Velvetleaf [7, 18]: 0
- Plant response rating, Velvetleaf [7, 19]: 0
- Bermudagrass plant response rating ([8]; 250 g ai/ha): 100
- Plant response rating, Bermudagrass [8, 12]: 100
- Plant response rating, Bermudagrass [8, 13]: 100
- Plant response rating, Bermudagrass [8, 14]: 100
- Plant response rating, Bermudagrass [8, 15]: 100
- Plant response rating, Bermudagrass [8, 16]: 98
- Plant response rating, Bermudagrass [8, 17]: 100
- Plant response rating, Bermudagrass [8, 18]: 100
- Plant response rating, Sedge, Umbrella [9, 20]: 70
- Plant response rating, Sedge, Umbrella [9, 21]: 80
- Plant response rating, Sedge, Umbrella [9, 22]: 80
- Plant response rating, Sedge, Umbrella [9, 23]: 70
- Plant response rating, Ducksalad [10, 20]: 40
- Plant response rating, Ducksalad [10, 21]: 50
- Plant response rating, Ducksalad [10, 22]: 65
- Plant response rating, Ducksalad [10, 23]: 30
- Plant response rating, Rice (rice (Oryza sativa); [20]): 60
- Plant response rating, Rice (rice (Oryza sativa); [21]): 75
- Plant response rating, Rice (rice (Oryza sativa); [22]): 80
- Plant response rating, Rice (rice (Oryza sativa); [23]): 15
- Plant response rating, Barnyardgrass [11, 20]: 50
- Plant response rating, Barnyardgrass [11, 21]: 70
- Plant response rating, Barnyardgrass [11, 22]: 90
- Plant response rating, Barnyardgrass [11, 23]: 20
